Consider two compounds from ChEMBL document CHEMBL4387741, “Optimization of novel reversible Bruton's tyrosine kinase inhibitors identified using Tethering-fragment-based screens” (Bioorg Med Chem, 2019).

For assay [1], the target named is Serine/threonine-protein kinase D1 (Homo sapiens) (UniProt Q15139). The assay can be described thus: Inhibition of wild-type human partial length PRKD1 (G551 to E870 residues) expressed in bacterial expression system at 1 uM by Kinomescan method relative to control.
Assay [2] has as its target STE20-like serine/threonine-protein kinase (Homo sapiens) (UniProt Q9H2G2). Briefly: Inhibition of wild-type human partial length SLK (S14 to A307 residues) expressed in bacterial expression system at 1 uM by Kinomescan method relative to control.
For assay [3], the target named is Cyclin-dependent kinase 17 (Homo sapiens) (UniProt Q00537). Briefly: Inhibition of wild-type human full length PCTK2 (M1 to F523 residues) expressed in bacterial expression system at 1 uM by Kinomescan method relative to control.
In assay [4] the target is Eukaryotic translation initiation factor 2-alpha kinase 1 (Homo sapiens) (UniProt Q9BQI3). The assay can be described thus: Inhibition of wild-type human partial length EIF2AK1 (Q147 to E603 residues) expressed in mammalian expression system at 1 uM by Kinomescan method relative to control.
Sequence of Eukaryotic translation initiation factor 2-alpha kinase 1 (Homo sapiens) (Q9BQI3 whole entry, the tested form may be a part): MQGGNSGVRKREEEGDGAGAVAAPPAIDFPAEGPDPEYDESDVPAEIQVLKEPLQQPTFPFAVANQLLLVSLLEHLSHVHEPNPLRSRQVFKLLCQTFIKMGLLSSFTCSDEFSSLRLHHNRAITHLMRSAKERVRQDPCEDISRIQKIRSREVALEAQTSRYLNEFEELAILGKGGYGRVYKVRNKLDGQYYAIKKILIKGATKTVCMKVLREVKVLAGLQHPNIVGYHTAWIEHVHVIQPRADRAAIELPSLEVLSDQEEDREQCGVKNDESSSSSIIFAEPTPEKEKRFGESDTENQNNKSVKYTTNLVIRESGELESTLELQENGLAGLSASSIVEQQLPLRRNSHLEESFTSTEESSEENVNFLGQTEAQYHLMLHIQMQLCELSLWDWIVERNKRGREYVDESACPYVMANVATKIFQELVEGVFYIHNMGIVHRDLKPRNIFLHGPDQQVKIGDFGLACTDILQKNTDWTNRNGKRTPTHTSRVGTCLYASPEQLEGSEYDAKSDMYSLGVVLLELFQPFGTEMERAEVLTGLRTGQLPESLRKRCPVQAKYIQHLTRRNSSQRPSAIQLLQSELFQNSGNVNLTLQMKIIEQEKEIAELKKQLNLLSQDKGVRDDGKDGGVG
Assay [5] has as its target Insulin receptor (Homo sapiens) (UniProt P06213). The assay can be described thus: Inhibition of wild-type human partial length INSR (P997 to E1318 residues) expressed in mammalian expression system at 1 uM by Kinomescan method relative to control.
Assay [6] has as its target Protein-tyrosine kinase 2-beta (Homo sapiens) (UniProt Q14289). The assay can be described thus: Inhibition of wild-type human full length PYK2 (M1 to E967 residues) expressed in bacterial expression system at 1 uM by Kinomescan method relative to control.
Assay [7] deals with Cyclin-dependent kinase 4/cyclin D1 (Homo sapiens) (UniProt P11802+P24385). Briefly: Inhibition of wild-type human full length CDK4/cyclinD1 (M1 to E303 residues) expressed in mammalian expression system at 1 uM by Kinomescan method relative to control.
Assay [8] deals with Activin receptor type-1-like (Homo sapiens) (UniProt P37023). Briefly: Inhibition of wild-type human ACVRL1 (L164 to Q503 residues) expressed in bacterial expression system at 1 uM by Kinomescan method relative to control.
Assay [9] deals with Activin receptor type-2B (Homo sapiens) (UniProt Q13705). The assay can be described thus: Inhibition of wild-type human ACVR2B (H169 to D504 residues) expressed in bacterial expression system at 1 uM by Kinomescan method relative to control.
Sequence of Activin receptor type-2B (Homo sapiens) (Q13705 whole entry, the tested form may be a part): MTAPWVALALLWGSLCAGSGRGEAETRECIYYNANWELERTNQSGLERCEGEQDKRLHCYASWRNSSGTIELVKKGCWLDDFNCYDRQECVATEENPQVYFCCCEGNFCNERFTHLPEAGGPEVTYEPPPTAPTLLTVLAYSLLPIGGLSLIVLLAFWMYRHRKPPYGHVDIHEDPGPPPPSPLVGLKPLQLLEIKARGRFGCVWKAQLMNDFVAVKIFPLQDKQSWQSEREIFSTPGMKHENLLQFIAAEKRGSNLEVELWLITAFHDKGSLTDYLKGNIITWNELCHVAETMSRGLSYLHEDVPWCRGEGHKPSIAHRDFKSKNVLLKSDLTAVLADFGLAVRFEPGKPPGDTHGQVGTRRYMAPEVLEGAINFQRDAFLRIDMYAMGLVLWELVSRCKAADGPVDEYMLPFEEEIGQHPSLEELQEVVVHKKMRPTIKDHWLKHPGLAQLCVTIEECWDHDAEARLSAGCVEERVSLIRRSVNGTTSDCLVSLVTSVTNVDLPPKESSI
The target in assay [10] is Calcium/calmodulin-dependent protein kinase type 1D (Homo sapiens) (UniProt Q8IU85). Briefly: Inhibition of wild-type human partial length CAMK1D (M1 to K299 residues) expressed in bacterial expression system at 1 uM by Kinomescan method relative to control.
Sequence of Calcium/calmodulin-dependent protein kinase type 1D (Homo sapiens) (Q8IU85 whole entry, looked up, the tested form may be a part): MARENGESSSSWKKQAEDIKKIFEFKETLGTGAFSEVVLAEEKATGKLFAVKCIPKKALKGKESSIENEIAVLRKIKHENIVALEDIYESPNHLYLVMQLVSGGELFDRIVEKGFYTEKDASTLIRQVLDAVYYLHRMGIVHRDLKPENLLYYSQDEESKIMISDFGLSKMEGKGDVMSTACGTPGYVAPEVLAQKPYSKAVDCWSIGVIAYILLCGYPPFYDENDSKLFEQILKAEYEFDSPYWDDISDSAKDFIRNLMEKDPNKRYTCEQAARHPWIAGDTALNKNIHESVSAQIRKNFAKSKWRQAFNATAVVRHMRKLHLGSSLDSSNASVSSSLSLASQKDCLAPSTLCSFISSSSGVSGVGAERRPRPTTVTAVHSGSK
Assay [11] deals with Activated CDC42 kinase 1 (Homo sapiens) (UniProt Q07912). Briefly: Inhibition of wild-type human partial length TNK2 (S159 to D474 residues) expressed in bacterial expression system at 1 uM by Kinomescan method relative to control.
Sequence of Activated CDC42 kinase 1 (Homo sapiens) (Q07912 whole entry, looked up, the tested form may be a part): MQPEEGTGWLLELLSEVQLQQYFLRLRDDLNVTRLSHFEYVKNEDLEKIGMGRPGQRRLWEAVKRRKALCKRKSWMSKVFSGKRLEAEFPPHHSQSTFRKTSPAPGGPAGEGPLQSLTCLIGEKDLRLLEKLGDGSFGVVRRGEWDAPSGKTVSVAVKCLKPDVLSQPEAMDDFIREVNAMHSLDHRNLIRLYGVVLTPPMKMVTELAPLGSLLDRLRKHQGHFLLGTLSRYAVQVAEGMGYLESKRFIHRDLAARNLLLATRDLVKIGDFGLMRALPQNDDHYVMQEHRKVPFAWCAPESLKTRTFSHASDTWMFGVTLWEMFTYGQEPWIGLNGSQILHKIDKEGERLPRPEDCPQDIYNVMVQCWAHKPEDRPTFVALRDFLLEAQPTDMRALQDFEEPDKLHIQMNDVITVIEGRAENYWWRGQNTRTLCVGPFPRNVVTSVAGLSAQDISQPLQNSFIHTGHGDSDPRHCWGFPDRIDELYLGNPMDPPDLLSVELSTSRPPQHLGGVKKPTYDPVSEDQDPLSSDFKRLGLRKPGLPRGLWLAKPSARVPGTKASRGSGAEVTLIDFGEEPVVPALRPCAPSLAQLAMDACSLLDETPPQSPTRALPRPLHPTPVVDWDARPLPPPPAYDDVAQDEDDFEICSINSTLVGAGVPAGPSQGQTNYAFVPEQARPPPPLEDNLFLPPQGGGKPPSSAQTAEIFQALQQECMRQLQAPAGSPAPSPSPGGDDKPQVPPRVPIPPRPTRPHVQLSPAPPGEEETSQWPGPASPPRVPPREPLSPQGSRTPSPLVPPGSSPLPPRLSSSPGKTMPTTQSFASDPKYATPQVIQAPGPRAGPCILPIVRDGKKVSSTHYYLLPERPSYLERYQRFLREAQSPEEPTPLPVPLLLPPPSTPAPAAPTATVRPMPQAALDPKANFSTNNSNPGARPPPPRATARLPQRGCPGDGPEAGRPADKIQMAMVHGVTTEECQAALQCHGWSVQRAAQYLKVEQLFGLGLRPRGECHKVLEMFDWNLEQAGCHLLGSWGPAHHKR
The test system of assay [12] is ALK tyrosine kinase receptor (Homo sapiens), Q9UM73 [C1156Y]. The assay can be described thus: Inhibition of wild-type human partial length ALK C1156Y mutant (I1088 to E1409 residues) expressed in mammalian expression system at 1 uM by Kinomescan method relative to control.
Assay [13] deals with Dual serine/threonine and tyrosine protein kinase (Homo sapiens) (UniProt Q6XUX3). Briefly: Inhibition of wild-type human full length RIPK5 (M1 to T929 residues) expressed in mammalian expression system at 1 uM by Kinomescan method relative to control.
Sequence of Dual serine/threonine and tyrosine protein kinase (Homo sapiens) (Q6XUX3 whole entry, the tested form may be a part): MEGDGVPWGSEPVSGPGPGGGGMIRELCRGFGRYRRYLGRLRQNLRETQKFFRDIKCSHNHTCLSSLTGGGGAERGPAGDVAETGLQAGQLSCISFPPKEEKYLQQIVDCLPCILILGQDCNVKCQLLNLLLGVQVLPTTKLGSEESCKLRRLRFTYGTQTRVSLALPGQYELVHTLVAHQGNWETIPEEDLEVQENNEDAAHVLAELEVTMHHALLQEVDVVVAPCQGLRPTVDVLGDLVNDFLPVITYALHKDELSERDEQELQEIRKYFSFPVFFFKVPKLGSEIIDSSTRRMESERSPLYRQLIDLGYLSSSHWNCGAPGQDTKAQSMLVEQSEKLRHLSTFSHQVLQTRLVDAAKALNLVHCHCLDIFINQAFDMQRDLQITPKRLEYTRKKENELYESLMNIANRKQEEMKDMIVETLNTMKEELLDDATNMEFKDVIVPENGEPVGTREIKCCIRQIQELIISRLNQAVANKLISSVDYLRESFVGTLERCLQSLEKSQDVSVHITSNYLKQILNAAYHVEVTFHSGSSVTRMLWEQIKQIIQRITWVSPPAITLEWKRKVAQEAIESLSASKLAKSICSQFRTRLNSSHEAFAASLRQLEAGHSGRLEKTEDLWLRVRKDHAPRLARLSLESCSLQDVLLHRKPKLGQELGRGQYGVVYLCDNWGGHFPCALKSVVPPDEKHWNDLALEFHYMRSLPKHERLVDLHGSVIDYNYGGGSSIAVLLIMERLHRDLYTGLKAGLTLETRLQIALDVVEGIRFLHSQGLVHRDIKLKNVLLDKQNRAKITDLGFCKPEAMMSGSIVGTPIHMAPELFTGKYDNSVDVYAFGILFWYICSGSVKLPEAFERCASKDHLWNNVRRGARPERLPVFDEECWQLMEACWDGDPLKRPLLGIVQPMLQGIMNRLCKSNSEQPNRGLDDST
Assay [14] addresses Serine/threonine-protein kinase D3 (Homo sapiens) (UniProt O94806). The assay can be described thus: Inhibition of wild-type human partial length PRKD3 (S543 to E863 residues) expressed in bacterial expression system at 1 uM by Kinomescan method relative to control.
Assay [15] deals with Casein kinase I isoform delta (Homo sapiens) (UniProt P48730). The assay can be described thus: Inhibition of wild-type human full length CSNK1D (M1 to K409 residues) expressed in bacterial expression system at 1 uM by Kinomescan method relative to control.
Sequence of Casein kinase I isoform delta (Homo sapiens) (P48730 whole entry, looked up, the tested form may be a part, canonical isoform): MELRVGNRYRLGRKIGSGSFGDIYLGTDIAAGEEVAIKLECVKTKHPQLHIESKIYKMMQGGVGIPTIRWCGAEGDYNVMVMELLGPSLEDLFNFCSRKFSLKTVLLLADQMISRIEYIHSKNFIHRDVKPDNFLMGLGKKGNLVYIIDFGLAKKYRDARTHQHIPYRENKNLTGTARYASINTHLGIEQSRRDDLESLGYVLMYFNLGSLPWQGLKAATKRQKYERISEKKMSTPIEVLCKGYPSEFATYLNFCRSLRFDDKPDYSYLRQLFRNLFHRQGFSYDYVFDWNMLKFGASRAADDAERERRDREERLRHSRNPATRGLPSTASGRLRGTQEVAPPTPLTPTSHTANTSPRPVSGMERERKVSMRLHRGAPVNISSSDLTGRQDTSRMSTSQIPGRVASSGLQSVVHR
Assay [16] has as its target Mitogen-activated protein kinase kinase kinase 9 (Homo sapiens) (UniProt P80192). The assay can be described thus: Inhibition of wild-type human partial length MLK1 (V88 to W426 residues) expressed in bacterial expression system at 1 uM by Kinomescan method relative to control.
The target of assay [17] is Ribosomal protein S6 kinase alpha-4 (Homo sapiens) (UniProt O75676). Briefly: Inhibition of wild-type human partial length C-terminal RPS6KA4 kinase domain 2 (M375 to T705 residues) expressed in mammalian expression system at 1 uM by Kinomescan method relative to control.
The subject of assay [18] is Phosphatidylinositol 4,5-bisphosphate 3-kinase catalytic subunit alpha isoform (Homo sapiens), P42336 [H1047Y]. The assay can be described thus: Inhibition of human partial length PIK3CA H1047Y mutant (R108 to N1068 residues) expressed in mammalian expression system at 1 uM by Kinomescan method relative to control.
Assay [19] concerns the target Discoidin domain-containing receptor 2 (Homo sapiens) (UniProt Q16832). The assay can be described thus: Inhibition of wild-type human partial length DDR2 (V555 to E855 residues) expressed in mammalian expression system at 10 uM by Kinomescan method relative to control.
Assay [20] concerns the target Tyrosine-protein kinase HCK (Homo sapiens) (UniProt P08631). Briefly: Inhibition of wild-type human full length HCK (M22 to P526 residues) expressed in bacterial expression system at 10 uM by Kinomescan method relative to control.
The target in assay [21] is Inhibitor of nuclear factor kappa-B kinase subunit alpha (Homo sapiens) (UniProt O15111). Briefly: Inhibition of wild-type human full length IKK-alpha (M1 to E745 residues) expressed in mammalian expression system at 10 uM by Kinomescan method relative to control.
Assay [22] concerns the target Phosphatidylinositol 4-phosphate 5-kinase type-1 gamma (Homo sapiens) (UniProt O60331). The assay can be described thus: Inhibition of wild-type human partial length PIP5K1C (M1 to T668 residues) expressed in mammalian expression system at 10 uM by Kinomescan method relative to control.
In assay [23] the target is Casein kinase I isoform gamma-2 (Homo sapiens) (UniProt P78368). Briefly: Inhibition of wild-type human full length CSNK1G2 (M1 to K415 residues) expressed in bacterial expression system at 10 uM by Kinomescan method relative to control.
Sequence of Casein kinase I isoform gamma-2 (Homo sapiens) (P78368 whole entry, looked up, the tested form may be a part, canonical isoform): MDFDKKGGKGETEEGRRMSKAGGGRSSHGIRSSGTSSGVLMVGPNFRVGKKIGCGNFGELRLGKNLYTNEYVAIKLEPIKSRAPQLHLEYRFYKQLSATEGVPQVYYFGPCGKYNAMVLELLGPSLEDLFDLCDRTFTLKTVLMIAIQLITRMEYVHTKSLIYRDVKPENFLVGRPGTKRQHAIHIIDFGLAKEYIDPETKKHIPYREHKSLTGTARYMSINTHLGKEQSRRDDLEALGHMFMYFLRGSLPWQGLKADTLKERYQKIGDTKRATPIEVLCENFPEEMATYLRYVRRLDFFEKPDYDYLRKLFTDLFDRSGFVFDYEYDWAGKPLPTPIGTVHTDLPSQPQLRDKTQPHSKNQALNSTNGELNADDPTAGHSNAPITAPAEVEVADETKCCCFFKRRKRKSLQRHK
The test system of assay [24] is Epidermal growth factor receptor (Homo sapiens), P00533 [L858R,T790M]. Briefly: Inhibition of human partial length EGFR L858R/T790M double mutant (R669 to V1011 residues) expressed in mammalian expression system at 10 uM by Kinomescan method relative to control.
Assay [25] deals with Dual specificity tyrosine-phosphorylation-regulated kinase 1B (Homo sapiens) (UniProt Q9Y463). The assay can be described thus: Inhibition of wild-type human full length DYRK1B (M1 to S629 residues) expressed in bacterial expression system at 10 uM by Kinomescan method relative to control.
Sequence of Dual specificity tyrosine-phosphorylation-regulated kinase 1B (Homo sapiens) (Q9Y463 whole entry, looked up, the tested form may be a part): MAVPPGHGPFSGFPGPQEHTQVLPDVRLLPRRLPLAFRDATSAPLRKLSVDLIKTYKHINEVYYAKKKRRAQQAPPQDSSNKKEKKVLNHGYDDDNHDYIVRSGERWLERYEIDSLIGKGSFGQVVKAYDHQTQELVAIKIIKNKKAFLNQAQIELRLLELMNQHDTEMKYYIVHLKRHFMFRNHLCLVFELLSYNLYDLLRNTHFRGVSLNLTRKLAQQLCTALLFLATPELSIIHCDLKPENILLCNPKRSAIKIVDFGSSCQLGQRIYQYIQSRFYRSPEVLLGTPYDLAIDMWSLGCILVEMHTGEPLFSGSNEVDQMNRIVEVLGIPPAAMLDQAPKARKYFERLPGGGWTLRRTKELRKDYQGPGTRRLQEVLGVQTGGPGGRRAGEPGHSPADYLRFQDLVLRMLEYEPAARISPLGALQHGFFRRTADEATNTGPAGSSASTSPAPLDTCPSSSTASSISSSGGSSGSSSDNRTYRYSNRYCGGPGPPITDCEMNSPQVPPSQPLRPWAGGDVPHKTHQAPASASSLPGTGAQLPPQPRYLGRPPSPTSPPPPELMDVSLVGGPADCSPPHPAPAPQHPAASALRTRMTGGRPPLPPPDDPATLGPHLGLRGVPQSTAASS
Assay [26] concerns the target Calcium/calmodulin-dependent protein kinase type 1D (Homo sapiens) (UniProt Q8IU85). The assay can be described thus: Inhibition of wild-type human partial length CAMK1D (M1 to K299 residues) expressed in bacterial expression system at 10 uM by Kinomescan method relative to control.
Assay [27] concerns the target Calcium/calmodulin-dependent protein kinase type II subunit delta (Homo sapiens) (UniProt Q13557). The assay can be described thus: Inhibition of wild-type human partial length CAMK2D (M1 to E329 residues) expressed in bacterial expression system at 10 uM by Kinomescan method relative to control.

As a reminder, the inhibition is the relative decrease from the control value, in per cent. Regarding `O=C(Nc1cccc([C@@H]2CN(c3ncnc4[nH]ccc34)CCN2CCO)c1)Nc1c(F)cccc1N1CCCC1`, the inhibition worked out at 100% in [1]; 88% in assay [2]; 100% in assay [3]; 100% in assay [4]; 100% in assay [5]; 84% in assay [6]. For the same compound, the inhibition in assay [7] worked out at 100%; in [8] it was 100%; in assay [9] it was 100%; in assay [10], 100%; in assay [11], 100%; in assay [12] it was 70%. For the same compound, the inhibition in assay [13] amounted to 74%; in assay [14], 86%; in assay [15], 100%; in assay [16] it was 86%; in assay [17], 97%; in [18], 53%.

On to `O=C(Nc1cccc([C@H]2CCCN(c3ncnc4[nH]ccc34)C2)c1)Nc1ccccc1N1CCCC1`, for which the inhibition was 0.55% in assay [19]; 98% in assay [20]; 27% in assay [21]; 59% in assay [22]; 100% in assay [23]; 83% in assay [24]. Also, the inhibition in assay [25] was found to be 94%; in [26], 54%; in [27] it was 100%.
